In patent publication US20240109850A1, “Covalent PPARG inverse-agonists” (Bayer Aktiengesellschaft, priority 2022, published 2024):

Target: T1, PPARG-LBD (Homo sapiens, UniProt P37231)
T1 construct: purchased ThermoFisher
T1 sequence (P37231 238-503 limits assumed): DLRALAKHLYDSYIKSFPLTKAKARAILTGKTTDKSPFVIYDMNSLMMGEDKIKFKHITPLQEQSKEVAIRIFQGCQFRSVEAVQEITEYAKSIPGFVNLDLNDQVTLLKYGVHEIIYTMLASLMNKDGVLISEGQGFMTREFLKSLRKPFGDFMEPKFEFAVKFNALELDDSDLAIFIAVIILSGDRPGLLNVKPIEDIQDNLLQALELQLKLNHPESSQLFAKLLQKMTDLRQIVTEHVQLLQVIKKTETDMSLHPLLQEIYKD
Assay: Biochemical LanthaScreen TR-FRET PPAR gamma corepressor assay (PPARG-LBD / NCOR2 peptide)
Conditions: 2 h, read-out: Efficacy
Protocol: Biochemical Assay for Determining Inverse Agonist Activity of Compounds
A biochemical interaction assay measuring the ligand-dependent changes in interactions between the PPARG-LBD and a fluorescent peptide from the corepressor, NCOR2 (Smrt ID2, ThermoFisher), was performed to evaluate inverse agonist activity.
This assay was performed according to the manufacturers protocol (LanthaScreen TR-FRET PPAR gamma Corepressor Assay, ThermoFisher). […] After incubation the FRET signal was measured using an PHERAstar Plus Plate Reader (BMG). Every sample was tested in duplicate and mean values were used to calculate the EC50 values and efficacies of the compounds. A model of nonlinear regression curve fit was used for calculation.

C=CC(=O)Nc1ccc2oc(-c3ccc(CC)cc3)nc2c1 [Example 24, N-[2-(4-Ethylphenyl)-1,3-benzoxazol-5-yl]prop-2-enamide]
Emax: 0%
